{
  "source": "paper PMC9298070",
  "about": "“Lack of a Clinically Meaningful Drug Interaction Between the HIV‐1 Antiretroviral Agents Islatravir, Dolutegravir, and Tenofovir Disoproxil Fumarate” (Clinical Pharmacology in Drug Development, 2021)",
  "origin": "cited, not measured here",
  "test_system": "CYP2D6",
  "parameters": "method as in PMID 34452431",
  "conditions": "at concentrations up to 100 μM; cited from earlier work",
  "data": [
    {"smiles": "C#C[C@]1(CO)O[C@@H](n2cnc3c(N)nc(F)nc32)C[C@@H]1O", "note": "[Islatravir, 4′‐Ethynyl‐2‐fluoro‐2′‐deoxyadenosine]", "values": [
      {"measurement": "inhibitory effect on CYP2D6", "result": "no inhibitory effect"}
    ]}
  ]
}
